Data on two molecules can be found in patent publication US20180296531A1, “STIMULATION OF 11B-HSD2 EXPRESSION TO IMPROVE HORMONAL THERAPY OF STEROID-DEPENDENT DISEASE” (THE CLEVELAND CLINIC FOUNDATION, priority 2015, published 2018).

In the test the test system is PSA, KLF9, PMEPA1 expression. As to the kind of experiment: Steroid-induced gene expression (PSA, KLF9, PMEPA1) by qPCR in long-term Enz-treated LAPC4 cells. The class given is cell-based, human. The following applies: LAPC4 treated with Enz 36 days, steroid 24 hours. The procedure:
LAPC4 cells were treated with Enz for 36 days and then seeded into 12 well plates coated with poly-DL-ornithine at 50% confluence. […] Total RNA was extracted with a GenElute Mammalian Total RNA miniprep kit (Sigma-Aldrich) and 1 μg RNA was reverse-transcribed to cDNA with the iScript cDNA Synthesis Kit (Bio-Rad). An ABI 7500 Real-Time PCR machine (Applied Biosystems) was used to perform the qPCR analysis, using iTaq Fast SYBR Green Supermix with ROX (Bio-Rad) in 96-well plates at a final reaction volume of 10 μl. The qPCR analysis was carried out in triplicate with suitable primers. Each mRNA transcript was quantitated by normalizing the sample values to RPLP0 and to vehicle treated cells (for steroid treated cells). All gene expression studies were repeated in independent experiments.
In general terms: In qPCR the cycle at which signal appears reflects the starting amount.

Turning to `C[C@]12CCC(=O)C[C@@H]1CC[C@@H]1[C@@H]2CC[C@]2(C)[C@@H](O)CC[C@@H]12` [DHT, 5α-dihydrotestosterone], the PMEPA1 expression entry is “induced with DHT only”.
On to `C[C@]12CCC(=O)C=C1CC[C@@H]1[C@@H]2[C@@H](O)C[C@@]2(C)[C@H]1CC[C@]2(O)C(=O)CO` [cortisol], for which the KLF9 expression result is “induced” and the PSA expression entry is listed as “cortisol induction of PSA expression”.
